Source: patent publication US10597735B2, “Antibacterial and plasmid elimination agents” (priority 2006, dated 2020)
Values after ≈ are worked out from the molar mass of the structure shown. “Also recorded” adds a separate entry of the source. Like-named read-outs stand apart in the source and are kept apart here. Where a SMILES comes first, the peptide text is derived from it.

Assays:
[1] = system: GFP-tag degradation by ClpXP; assay: In vivo screen: GFP-tag reporter fluorescence in E. coli producing the cyclic peptide from a SICLOPPS plasmid, epifluorescence microscopy (Example 3); format: cell-based
Procedure: Screen for inhibitors of the tmRNA pathway: E. coli BW7786 cells containing the GFP-tag reporter and the SICLOPPS library were grown in LB broth with 30 μg/ml chloramphenicol, 100 μg/ml ampicillin, and 0.0002% arabinose at 37° C. to OD600=0.3. IPTG was added to a final concentration of 1 mM, and the culture was grown for 3 hours. Cells were sorted by fluorescence activated cell sorting (FACS) using a Beckman Coulter Elite cell sorter with Autoclone to isolate cells with GFP fluorescence, and selected cells were deposited on agar plates for clonal growth. Cells from each colony were grown in liquid culture as described above and examined by epifluorescence microscopy. The fluorescence intensity and the number of cells with fluorescence above background were scored using ImagePro software (MediaCybernetics). SICLOPPS plasmid DNA was prepared from selected clones and the region encoding the cyclic peptide was sequenced. Peptide sequences were obtained from conceptual translation of the DNA sequences.
Approximately 0.014% of the population had fluorescence over the background level, and 96 of these cells were isolated for clonal growth and characterization. To eliminate any clones that resulted from sorting errors or spurious accumulation of GFP, cells from each colony were cultured and examined by epifluorescence microscopy.

[2] = system: GFP-tag reporter; assay: GFP-tag reporter fluorescence in cells expressing SGW+5 SICLOPPS clones, epifluorescence microscopy (Example 1); format: cell-based, E. coli
Text: Clonal populations are obtained by spotting the cells with high fluorescence on agar plates, and cells from each colony are screened by epi-fluorescence microscopy for fluorescence intensity. SICLOPPS plasmids from clones that pass the microscopy screen were isolated and sequenced to identify the cyclic peptide that is produced in that clone.
A SICLOPPS library was constructed in which the cyclic peptide contains three constant amino acids, SGW, followed by five random amino acids encoded by NNS codons. This library was introduced into cells containing the GFP-tag reporter, and the expression of the reporter and cyclic peptide were induced. Approximately 690,000 cells were sorted by FACS and the brightest 50 were isolated. These 50 clones were grown individually in fresh medium, the expression of reporter and cyclic peptide was induced, and the culture was observed by epifluorescence microscopy. Two clones produced cultures in which nearly 100% of the cells were highly fluorescent.

[3] = biological target: T1, ClpXP (Escherichia coli, UniProt P0A6G7+P0A6H1); assay: biochemical; format: biochemical, E. coli
Procedure: (§1) In vitro proteolysis assays: Proteolysis of GFP-tag was performed using a continuous fluorescence assay essentially as previously described (Levchenko et al. 2000, Science 289: 2354-2356). Briefly, loss of GFP fluorescence was monitored at 507 nm after excitation at 395 nm at 30° C. using a Hitachi F-2000 Fluorescence Spectrophotometer in buffer R (25 mM HEPES-KOH (pH 7.6), 5 mM MgCl2, 50 mM KCl, 0.032% NP-40, 10% glycerol, and an ATP regeneration system containing 4 mM ATP (pH 7), 16 mM creatine phosphate and 0.32 mg/ml creatine kinase). Typically, reactions contained […], 0.3 μM ClpP14, and equimolar concentrations (0.2 μM-2.0 μM) GFP-tag and SspB. Degradation of GFP-tag protein was confirmed by SDS-PAGE assays. To examine inhibition of GFP-tag proteolysis, peptides were incubated with ClpXP in reaction buffer for 5 min prior to the addition of GFP-tag. Plots of fluorescence versus time were fit with a single exponential function to determine the initial rate of proteolysis. Kinetic parameters were estimated using Eadie-Hofstee plots.
Proteolysis of GFP-tag in the presence of ClpXP and SspB was monitored by loss of GFP fluorescence in a continuous fluorometric assay. In the absence of cyclic peptide, GFP-tag was degraded with kinetic parameters kcat=[…], KM=0.74±0.04 μM. […] Likewise, no degradation was observed when ClpX or ClpP were omitted from the reaction.

[4] = biological target: T1, ClpXP; assay: In vitro proteolysis of GFP-tag by ClpXP without SspB (Example 3); format: biochemical, E. coli; details: no SspB
Procedure: as §1
In the in vitro and in vivo proteolysis reactions above, the proteolytic adaptor SspB binds GFP-tag and tethers it to ClpXP (Levchenko et al. 2000, Science 289: 2354-2356). In principle, IXP1 could act on the GFP-tag.cndot.ClpXP interaction or the SspB.cndot.ClpXP interaction. […]

[5] = biological target: ClpX (Escherichia coli, UniProt P0A6H1); assay: ClpX ATPase assay; format: biochemical, E. coli
Procedure: ATPase and peptidase assays: ClpX ATPase activity was measured by monitoring the increase in phosphate using a ternary hetero polyacid assay (Chen et al. 2003, Tsinghua Science and Technology 8: 422-427). 1 μM ClpX was incubated with or without 6 μM GFP-tag and varying concentrations of IXP1 in buffer P (4 mM ATP, 50 mM tris-HCl (pH 7.5), 100 mM NaCl, 100 mM KCl, 10 mM MgCl2, 2 mM DTT, and 10% glycerol) at 37° C. At each time point 10 μl was removed from the reaction, added to 265 μl 0.88 M nitric acid for 2 min, and 225 μl color developing solution (44.4 mM bismuth nitrate, 31.1 mM ammonium molybdate, 0.11% ascorbic acid) was added and the absorbance at 700 nm was determined. The rate of ATP hydrolysis was determined from plots of phosphate accumulation versus time.

[6] = biological target: ClpP (Escherichia coli, UniProt P0A6G7); assay: ClpP peptidase assay with Suc-Leu-Tyr-AMC; format: biochemical, E. coli; details: Suc-Leu-Tyr-AMC substrate
Procedure: ClpP peptidase activity was measured using the fluorogenic peptide Suc-Leu-Tyr-AMC. 0.1 μM ClpP was incubated with 0.5-1.0 mM Suc-Leu-Tyr-AMC and varying concentrations of IXP1 in buffer P at 37° C. and monitoring the fluorescence of AMC (excitation at 353 nm, emission at 442 nm).

[7] = biological target: T1, ClpXP; assay: Peptidase activity of ClpXP against IXP1, reverse-phase HPLC; format: biochemical, E. coli; details: 60 min, no GFP-tag, HPLC peak area
Procedure: Peptidase activity against IXP1 was assayed by incubating 200 μM IXP1 with 0.1 μM ClpX6, 0.3 μM ClpP14 and the ATP regeneration system in buffer R at 37° C. Sample were taken after 0, 5, and 60 min, and
separated by reverse-phase HPLC using a Varian Microsorb-MV C18 column developed in a gradient from 0.1% trifluoroacetic acid in water to 0.1% trifluoroacetic acid in acetonitrile. UV absorbance at 280 nm was monitored and the peak corresponding to the IXP1 cyclic peptide was determined by comparison to reactions containing only cyclic IXP1 or linear IXP1. The loss of cyclic IXP1 was determined by integrating the area under the cyclic IXP1 peak.

[8] = system: C. crescentus; format: cell-based, Caulobacter crescentus
Procedure: Antibacterial activity assays: To measure the effects of peptides on bacterial growth, cultures of C. crescentus were diluted to OD600=0.001, peptide was added at various concentrations, the cultures were incubated at 30° C. for 14 h, and the MIC was determined as the lowest concentration of peptide that prevented growth. To determine the MBC, each culture was diluted 1:100 in PYE and 10 μl of the diluted culture was spread onto PYE agar plates, incubated at 30° C. overnight, and the number of colonies on each plate was counted. The MBC was assigned as the concentration of peptide that reduced the number of colonies by 99.9% compared to cultures with no inhibitor.

[9] = biological target: T1, ClpXP; assay: ClpXP degradation of GFP-tag in the presence of SspB, continuous fluorimetric assay (Examples 1-2); format: biochemical, E. coli; details: SspB present
Procedure: (§2) ClpXP Proteolysis: PD buffer contained 25 mM HEPES-KOH (pH 7.6), 5 mM KCl, 5 mM MgCl2, 0.032% NP-40, 5 mM ATP, and 10% glycerol. The ATP regenerating system consisted of 8 mM creatine phosphate and 0.16 mg/ml creatine kinase. Inhibition experiments were performed using a Hitachi F-2000 Fluorescence Spectrophotometer. The rate of GFP-ssrA degradation was monitored at 30° C. for 5 minutes by the loss of fluorescence (excitation 488 nm; emission 507 nm). Competition experiments with increasing concentrations of peptide were performed using GFP-ssrA (0.2 μM), ClpX6 (0.3 ArM), ClpP14 (0.8 μM), and SspB2 (0.3 μM) in PD buffer plus 200 mM KCl and ATP regenerating system. Curve fitting for the competitive inhibition assays were performed using the Scientist program (MicroMath Scientific Software, Inc.).
Characterization of ClpXP inhibitors in vitro: Two of the selected cyclic peptides were synthesized in vitro to examine their effects on enzymatic assays. Peptides with the sequence SGWRVQGPL (SEQ ID NO: 1) and SGSKGVLPL (SEQ ID NO: 2) were chemically synthesized in the linear form, circularized, and purified by HPLC. The effects of these peptides on the activity of purified ClpXP were determined in vitro using a continuous fluorimetric assay. GFP-tag, SspB, ClpX and ClpP were each purified from over-expressing strains of E. coli, and degradation of GFP-tag was monitored by loss of fluorescence. In reactions containing all components, GFP-tag was degraded with kinetic parameters kcat=1.79±0.08 min−1, KM=0.74±0.04, similar to the previously published values of 1.44 min^−1 and 0.96 μM. […] For both cyclic peptides, inhibition of ClpXP was reversible, as no inhibition was observed when ClpXP was incubated with peptide at concentrations above the Kr, and dialyzed to remove unbound peptide before addition of enzyme to the reaction. The linear versions of SGSKGVLPL (SEQ ID NO: 2) and SGWRVQGPL (SEQ ID NO: 1) had Kb, values >1 mM (Table 4), so the cyclic architecture is likely to be important for inhibition.

[10] = biological target: T1, ClpXP; assay: ClpXP degradation of GFP-tag in the absence of SspB (Examples 1-2); format: biochemical, E. coli; details: no SspB
Procedure: as §2
A priori, there are several steps in the degradation pathway that could be inhibited by the selected cyclic peptides: binding of the substrate-SspB complex to ClpXP, ATPase activity of ClpX, and hydrolysis of the peptide bond by ClpP. Molecules that block the binding of substrate to SspB should not be inhibitors of proteolysis by ClpXP, because ClpXP will degrade tmRNA-tagged substrates in the absence of SspB. To determine if the inhibitors act through SspB, the kinetic assays were repeated in the absence of this proteolytic adaptor.

[11] = biological target: T1, ClpXP; assay: Proteolysis of λO protein by ClpXP, SDS-PAGE (Example 3); format: biochemical, E. coli
Procedure: Proteolysis of λO protein was assayed by incubating 1 μM λO with 0.1 μM ClpX6, 0.3 μM ClpP14 in buffer R at 30° C. At various times the reaction was sampled, the reaction was terminated by boiling in SDS-PAGE loading buffer, and analyzed using SDS-polyacrylamide gels stained with Coomassie blue. The intensity of the band corresponding to intact λO protein was measured using ImageQuant software (Molecular Dynamics), and plots of the intensity versus time were fit with single exponential functions to determine the half-life of λO protein.
To determine if IXP1 inhibits proteolysis of ClpXP substrates recognized by an epitope distinct from the tmRNA tag, λO protein was used as an assay substrate. […] Degradation of λO was assayed in the presence and absence of IXP1 by following the loss of intact λO protein on SDS-polyacrylamide gels (FIG. 7).

T1 sequence (P0A6G7 15-207): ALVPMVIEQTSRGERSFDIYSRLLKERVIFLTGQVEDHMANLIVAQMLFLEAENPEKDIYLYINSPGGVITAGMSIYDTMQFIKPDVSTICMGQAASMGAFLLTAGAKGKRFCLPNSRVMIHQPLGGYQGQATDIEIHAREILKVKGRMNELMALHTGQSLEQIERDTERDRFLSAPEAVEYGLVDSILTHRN
T1 sequence (P0A6H1 whole entry): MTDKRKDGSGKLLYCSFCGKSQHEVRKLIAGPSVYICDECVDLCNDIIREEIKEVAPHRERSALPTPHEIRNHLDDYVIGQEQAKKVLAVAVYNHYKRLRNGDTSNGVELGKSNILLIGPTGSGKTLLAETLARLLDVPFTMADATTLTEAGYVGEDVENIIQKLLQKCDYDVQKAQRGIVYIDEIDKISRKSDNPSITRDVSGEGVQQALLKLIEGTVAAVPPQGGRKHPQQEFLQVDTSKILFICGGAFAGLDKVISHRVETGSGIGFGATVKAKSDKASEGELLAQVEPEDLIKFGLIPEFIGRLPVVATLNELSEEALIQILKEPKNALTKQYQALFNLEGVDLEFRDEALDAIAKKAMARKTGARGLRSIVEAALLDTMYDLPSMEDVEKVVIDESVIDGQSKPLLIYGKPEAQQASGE
ClpX, sequence (P0A6H1 whole entry): as above
ClpP, sequence (P0A6G7 15-207): as the sequence (P0A6G7 15-207) above

N=C(N)NCCC[C@@H]1NC(=O)CNC(=O)[C@H](Cc2ccc(O)cc2)NC(=O)[C@H](Cc2c[nH]c3ccccc23)NC(=O)CNC(=O)[C@H](CO)NC(=O)[C@H](Cc2c[nH]cn2)NC(=O)[C@H](CCCNC(=N)N)NC1=O [IXP1, SGWYGRRH] (HELM PEPTIDE1{G.R.R.H.S.G.W.Y}$PEPTIDE1,PEPTIDE1,1:R1-8:R2$$$V2.0)
cell morphology ([1]; compared with filamentous ΔclpX strain): slightly filamentous | GFP-tag fluorescence / inhibition in vivo ([1]; compared with ΔclpX strain): indistinguishable from the ΔclpX strain; also recorded: fluorescent cells | average fluorescent intensity relative to cultures expressing ICP1 or ICP2 [2]: more than twice | cells highly fluorescent ([2]; induced culture): ~100% | mode of inhibition of GFP-tag degradation ([3]; SspB present): uncompetitive inhibition | inhibition of ClpXP proteolysis of GFP-tag in vitro ([3]; at the concentrations tested): reduced the rate | effect on GFP-tag degradation by ClpXP in the absence of SspB [4]: still inhibited | ClpX ATPase activity with GFP-tag included ([5]; with GFP-tag): no effect | rate of ClpX ATP hydrolysis ([5]; without GFP-tag, up to 200 μM IXP1): not inhibited | decrease of ClpP peptidase activity [6]: less than 2% | amount of cyclic peptide after incubation with ClpXP [7]: did not change; also recorded: unchanged | MBC [8]: 279 ± 23 µM (≈ 279 µg/mL) | MIC [8]: 219 ± 42 µM (≈ 219 µg/mL)

CC(C)C[C@@H]1NC(=O)[C@H](C)NC(=O)[C@@H]2CCCN2C(=O)[C@H](CCCNC(=N)N)NC(=O)CNC(=O)CNC(=O)[C@H](CCCNC(=N)N)NC(=O)[C@H](CS)NC(=O)[C@H](CCCCN)NC(=O)[C@H](C(C)C)NC(=O)[C@H](C(C)C)NC(=O)[C@H](CCCNC(=N)N)NC1=O [cycXB, CRGGRPALRVVK] (HELM PEPTIDE1{A.L.R.V.V.K.C.R.G.G.R.P}$PEPTIDE1,PEPTIDE1,1:R1-12:R2$$$V2.0)
KI fold lower than the linear XB peptide [9]: 7 fold | KI fold lower than the selected cyclic peptide inhibitors [9]: 2-3 fold | inhibition of GFP-tag degradation by ClpXP in the absence of SspB [10]: inhibited | KI fold lower than the linear XB peptide ([3]; SspB present): 7 fold | inhibition of λO degradation by ClpXP [11]: did not inhibit | MBC ([8]; C. crescentus, 99.9% colony reduction, listed as cyclic XB): 40 ± 6 µM (≈ 51.7 µg/mL)
